Measurements: patent US20240226125A1, “USE OF SOTAGLIFLOZIN FOR THE TREATMENT OF PATIENTS WITH TYPE 1 DIABETES MELLITUS” (priority 2019, published 2024)

Test system: adult patients with Type 1 Diabetes Mellitus who have inadequate glycemic control with insulin therapy
Experiment: inTandem 1 and inTandem 2 pooled clinical studies, safety events / main risks
Assay type: in vivo, human
Conditions: for Discontinuation of drug due to diarrhea / Patients with Any TEAE, (%) / Patients with DKA (positively adjudicated), (%) / Patients with Diarrhea, (%) / Patients with Genital mycotic infection, (%) / Patients with Severe hypoglycemia (positively adjudicated), (%): through 52 Weeks
[1] = 400 mg, Baseline BMI <27 kg/m^2, Week 52
[2] = 400 mg, Baseline BMI ≥27 kg/m^2, Week 52

SMILES: CCOc1ccc(Cc2cc([C@@H]3O[C@H](SC)[C@@H](O)[C@H](O)[C@H]3O)ccc2Cl)cc1 [sotagliflozin, (2S,3R,4R,5S,6R)-2-(4-chloro-3-(4-ethoxybenzyl)phenyl)-6-(methylthio)tetrahydro-2H-pyran-3,4,5-triol]
- Diarrhea, EAIR per 1,000 Subject-years (95% CL) [1]: 102.78 (56.56, 148.99) per 1,000 Subject-years
- Diarrhea, Events [n (%) n]: events n [1]: 28
- Diarrhea, Events [n (%) n]: patients (%) [1]: 9.0%
- Diarrhea, Events [n (%) n]: patients n [1]: 19
- Diarrhea, Events per Subject per Year [1]: 0.151 Events per Subject per Year
- Diarrhea, Relative Risk of EAIR (95% CL) Versus Placebo [1]: 2.98 (1.28, 7.60)
- Documented hypoglycemia <55 mg/dL, Events per Subject per Year [1]: 15.74 Events per Subject per Year
- Genital Mycotic Infections (female), EAIR per 1,000 Subject-years (95% CL) [1]: 196.79 (108.30, 285.28) per 1,000 Subject-years
- Genital Mycotic Infections (female), Events [n (%) n]: events n [1]: 31
- Genital Mycotic Infections (female), Events [n (%) n]: patients (%) [1]: 16.8%
- Genital Mycotic Infections (female), Events per Subject per Year [1]: 0.321 Events per Subject per Year
- Genital Mycotic Infections (female), Relative Risk of EAIR (95% CL) Versus Placebo [1]: 6.46 (2.09, 27.41)
- Genital Mycotic Infections (male), EAIR per 1,000 Subject-years (95% CL) [1]: 101.91 (35.33, 168.49) per 1,000 Subject-years
- Genital Mycotic Infections (male), Events [n (%) n]: events n [1]: 10
- Genital Mycotic Infections (male), Events [n (%) n]: patients (%) [1]: 9.1%
- Genital Mycotic Infections (male), Events per Subject per Year [1]: 0.113 Events per Subject per Year
- Genital Mycotic Infections (male), Relative Risk of EAIR (95% CL) Versus Placebo [1]: 5.31 (1.26, 36.06)
- Positively Adjudicated Diabetic Ketoacidosis, EAIR per 1,000 Subject-years (95% CL) [1]: 48.68 (16.88, 80.49) per 1,000 Subject-years
- Positively Adjudicated Diabetic Ketoacidosis, Events [n (%) n]: events n [1]: 9
- Positively Adjudicated Diabetic Ketoacidosis, Events [n (%) n]: patients (%) [1]: 4.2%
- Positively Adjudicated Diabetic Ketoacidosis, Events per Subject per Year [1]: 0.049 Events per Subject per Year
- Positively Adjudicated Severe Hypoglycemia, EAIR per 1,000 Subject-years (95% CL) [1]: 59.50 (24.34, 94.67) per 1,000 Subject-years
- Positively Adjudicated Severe Hypoglycemia, Events [n (%) n]: events n [1]: 16
- Positively Adjudicated Severe Hypoglycemia, Events [n (%) n]: patients (%) [1]: 5.2%
- Positively Adjudicated Severe Hypoglycemia, Events per Subject per Year [1]: 0.087 Events per Subject per Year
- Positively Adjudicated Severe Hypoglycemia, Relative Risk of EAIR (95% CL) Versus Placebo [1]: 0.71 (0.32, 1.51)
- Diarrhea, EAIR per 1,000 Subject-years (95% CL) [2]: 92.38 (57.53, 127.23) per 1,000 Subject-years
- Diarrhea, Events [n (%) n]: events n [2]: 37
- Diarrhea, Events [n (%) n]: patients (%) [2]: 8.6%
- Diarrhea, Events [n (%) n]: patients n [2]: 27
- Diarrhea, Events per Subject per Year [2]: 0.127 Events per Subject per Year
- Diarrhea, Relative Risk of EAIR (95% CL) Versus Placebo [2]: 1.25 (0.70, 2.27)
- Documented hypoglycemia <55 mg/dL, Events per Subject per Year [2]: 14.45 Events per Subject per Year
- Genital Mycotic Infections (female), EAIR per 1,000 Subject-years (95% CL) [2]: 192.26 (121.05, 263.48) per 1,000 Subject-years
- Genital Mycotic Infections (female), Events [n (%) n]: events n [2]: 48
- Genital Mycotic Infections (female), Events [n (%) n]: patients (%) [2]: 17.6%
- Genital Mycotic Infections (female), Events per Subject per Year [2]: 0.330 Events per Subject per Year
- Genital Mycotic Infections (female), Relative Risk of EAIR (95% CL) Versus Placebo [2]: 2.70 (1.30, 6.04)
- Genital Mycotic Infections (male), EAIR per 1,000 Subject-years (95% CL) [2]: 47.74 (12.37, 83.10) per 1,000 Subject-years
- Genital Mycotic Infections (male), Events [n (%) n]: events n [2]: 10
- Genital Mycotic Infections (male), Events [n (%) n]: patients (%) [2]: 4.5%
- Genital Mycotic Infections (male), Events per Subject per Year [2]: 0.068 Events per Subject per Year
- Genital Mycotic Infections (male), Relative Risk of EAIR (95% CL) Versus Placebo [2]: 6.93 (1.07, 157.36)
- Positively Adjudicated Diabetic Ketoacidosis, EAIR per 1,000 Subject-years (95% CL) [2]: 37.64 (15.39, 59.88) per 1,000 Subject-years
- Positively Adjudicated Diabetic Ketoacidosis, Events [n (%) n]: events n [2]: 11
- Positively Adjudicated Diabetic Ketoacidosis, Events [n (%) n]: patients (%) [2]: 3.5%
- Positively Adjudicated Diabetic Ketoacidosis, Events per Subject per Year [2]: 0.038 Events per Subject per Year
- Positively Adjudicated Diabetic Ketoacidosis, Relative Risk of EAIR (95% CL) Versus Placebo [2]: 10.22 (1.74, 221.94)
- Positively Adjudicated Severe Hypoglycemia, EAIR per 1,000 Subject-years (95% CL) [2]: 41.06 (17.83, 64.29) per 1,000 Subject-years
- Positively Adjudicated Severe Hypoglycemia, Events [n (%) n]: events n [2]: 17
- Positively Adjudicated Severe Hypoglycemia, Events [n (%) n]: patients (%) [2]: 3.8%
- Positively Adjudicated Severe Hypoglycemia, Events per Subject per Year [2]: 0.058 Events per Subject per Year
- Positively Adjudicated Severe Hypoglycemia, Relative Risk of EAIR (95% CL) Versus Placebo [2]: 0.51 (0.24, 1.02)
- Discontinuation of drug due to diarrhea (SOTA 200 mg): 0.4%
- Patients with Any TEAE, (%) (SOTA 200 mg): (75.0) %
- Patients with DKA (positively adjudicated), (%) (SOTA 200 mg): (2.9) %
- Patients with Diarrhea, (%) (SOTA 200 mg): (6.5) %
- Patients with Genital mycotic infection, (%) (SOTA 200 mg): (9.2) %
- Patients with Severe hypoglycemia (positively adjudicated), (%) (SOTA 200 mg): (5.7) %
- Discontinuation of drug due to diarrhea (SOTA 400 mg): 0.8%
- Patients with Any TEAE, (%) (SOTA 400 mg): (74.3) %
- Patients with DKA (positively adjudicated), (%) (SOTA 400 mg): (3.8) %
- Patients with Diarrhea, (%) (SOTA 400 mg): (8.8) %
- Patients with Genital mycotic infection, (%) (SOTA 400 mg): (12.0) %
- Patients with Severe hypoglycemia (positively adjudicated), (%) (SOTA 400 mg): (4.4) %
- risk of diarrhea compared to placebo (baseline BMI ≥27 kg/m^2, any doses): No increased risk
- risk of DKA versus placebo (both BMI subgroups): increased
- risk of severe hypoglycemia (both doses, baseline BMI ≥27 kg/m^2 (only 400 mg in BMI <27 kg/m^2)): numerically lower risk
- event rates of documented hypoglycemia ≤55 mg/dL (both doses, both BMI subgroups): numerically lower
